Assay results from patent US10573426B2, “Fluorinated nitriles as dielectric gases” (3M INNOVATIVE PROPERTIES COMPANY, priority 2012, dated 2020).

Assays:
rats = assay: 4 hour inhalation LC50 in rats; type: in vivo
Description: (§1) For example, heptafluoroisobutyronitrile and 2,3,3,3-tetrafluoro-2-(trifluoromethoxy) propanenitrile have 4 hour inhalation lethal concentration at 50% (“LC-50”, defined as the dose required to produce lethality in half the members of a tested population after a specified test duration) (in rats) values of about 15,000 ppm. […] The nitriles of the present disclosure achieve these lower toxicities without the addition of additives such as nitrite esters as in U.S. Pat. No. 4,547,316.

6 hour inhalation LC50 = type: in vivo; details: species not given
Description: as §1

Row | Compound | 4 hour inhalation lethal concentration at 50% (LC-50) (rats) | 6 hour inhalation LC50 (6 hour inhalation LC50) [ppm]
1 | N#CC(F)(C(F)(F)F)C(F)(F)F [heptafluoroisobutyronitrile, Heptafluoroisobutyronitrile] | about 15,000 ppm | 
2 | N#CC(F)(F)C(F)(F)C(F)(F)F [CF3CF2CF2CN] | less than 6,000 ppm | 
3 | N#CC(F)(OC(F)(F)F)C(F)(F)F (centres unmarked) [2,3,3,3-tetrafluoro-2-(trifluoromethoxy)propanenitrile] | about 15,000 ppm | 
4 | N#CC(F)(F)F [CF3CN] |  | 240
5 | N#CC(F)(F)C(F)(F)F [CF3CF2CN] | 2731 ppm | 
